From patent EP0374267A1, “DERIVATIVES OF PLATINUM (P) WITH A POLYANION OF DEOXYRIBONUCLEIC ACID, METHOD FOR OBTAINING THEM AND PHARMACEUTICAL ANTITUMOR PREPARATION BASED ON THEM” (priority 1988, dated 1989)

Legend:
[1] = Acute toxicity, intraperitoneal, rats and mice (with histology of kidney and gut); assay type: in vivo, weissen rassenlosen Ratten; weissen nichtlinearen Mäusen; settings: i.p. 3x at 2 h intervals, total dose
Description: Die Anzahl der krepierten Tiere in jeder Gruppe wurde alle 21 bis 48 Stunden registriert. In jeder Gruppe waren je 12 Tiere (6 Männchen und 6 Weibchen), die Versuche wurden zweimal wiederholt. Die Ergebnisse der Versuche sind in der Tabelle 2 angeführt.
Die krepierten Tiere wurden obduziert und man führte hystologische Untersuchungen der Nieren und des Darmes durch. Die Tiere, die die beanspruchten Stoffe in einer unter der toxischen Dosis liegenden Menge verabreicht bekamen, wurden in I4 Tagen getötet. Die inneren Organe derselben wurden der Autopsie ausgesetzt.

Solubility = assay type: physicochemical; settings: 20°C
[2] = pH of a solution in citrate-salt solution (potentiometric); assay type: physicochemical; settings: 0,015 g (II: 0,018 g) in 1000 ml Zitrat-Salz-Lösung, 20°C
Experimental: Die erfindung sgemässe Verbindung, Poly{hexakis-[Chloroammindiaquaplatin (II)]} - µ - desoxyribonukleat fol- ^gender Formel: [drawing 3] worin n = 1900±90, m = bn,- DNS = (̵C39H49O32N15P4)̵n ..., verliert bei Erhitzung innerhalb von IO Stunden bei einer Temperatur von I80 bis 200°C alle Wassermoleküle. Der Stoff lässt sich schlecht in Wasser, Methanol, Athanol auflösen, er ist nichthygroskopisch. Seine Löslichkeit in wasser bei einer Temperatur von 20°C beträgt 0,002%. Eine Lösung von 0,015 g des beanspruchten Stoffes in I000 ml einer Zitrat-Salz-Lösung (0,015 Mol NaCl + 0,0015 Mol Natriumzitrat) bei einer Temperatur von 20°C hat einen pH-Wert von 5,42 (pH- potentiometrisch).

[3] = Antibody (agglutinin) titre in serum of intact mice immunised with sheep erythrocytes; assay type: in vivo, Mäuse-Linien CBA und C57Bl6
Description: Der Einfluss der beanspruchten Stoffe auf die Antitelogenese wurde auch an zwei gegensätzlich auf Hammelerythrozyte reagierenden Mäuse-Linien: CBA und C57Bl6 untersucht. Man verwendete Tiere mit einem Gewicht von 20+2 g, die einer Quarantäne innerhalb von mindestens 20 Tagen ausgesetzt wurden. […] In einer Stunde wurden die Tiere immunisiert, indem man ihnen intraperitoneal I0^8 Zellen der Hammelerythrozyte einführt..Am 7., 14. und 30. Tag tötete man die Tiere und ermittelte man den Gehalt an Agglutininen im Blutserum in an sich bekannter Weise. Die Ergebnisse wurden in Form lg2 der Antikörper-Titer ausgedrückt. Die Ergebnisse sind in der Tabelle 5 angeführt.

Shvetz-Erythromyelose = experiment: Antineoplastic activity against transplanted Shvetz erythromyelosis in rats; assay type: in vivo, weissen rassenlosen Ratten; settings: for Grad der Hemmung des Wachstums eines Tumors: i.p. 3x at 24 h intervals from day 4-6 after inoculation, dose I 17.1, II 17,1-27,3, III 27,3, CDDP 8,1, DNS 18,0 mg/kg
Description: Die erfindungsgemässen Verbindung weisen antineonlastische Aktivität in Verbindung mit einer immunomudulierenden Wirkung auf. Die beanspruchten Verbindungen und das erfindungsgemässe Arzneipräparat mit antineoplastischer Wirkung wurden in Versuchen an Tieren und in Kliniken an Menschen untersucht. Untersucht wurde ihre antineoplastische Aktivität gegenüber der überimnften Shvetz-Erythromyelose Die antineoplastische Aktivität jedes der angemeldeten Stoffe bewertete man nach den Ergebnissen der Versuche, die an weissen rassenlosen Ratten mit einem Gewicht von 150 bis 200 g (in Gruppen zu je 10 Tieren) angestellt wurden. Den Tieren wurden 2.10^8 - 2.10^10 Zellen des überimpften Stammes der Shvetz-Erythromyelose subkutan in die Hüfte inokuliert. Am 4. bis 6. Tag nach der Inokulation der Tumorzellen, das heisst in der Periode der logarythmischen Phase des Wachstums eines Tumors, begann man, den Tieren die erfindungsgemässen Verbindungen einzuführen. Die angemeldeten Verbindungen wurden intraperitoneal dreimal mit einem Zeitabstand von 24 stunden in Form von wässerigen Lösungen beziehungsweise wässerigen Suspensionen eingeführt.
Antineoplastische Wirkung der erfindung sgemässen Verbindungen wurde im Vergleich zur Kontrolle (ohne Anwendung der Präparate) und im Vergleich zu den CDDP- und DNS-Präparaten untersucht.
Die antineoplastische Aktivität bewertete man nach folgenden biologischen Kenndaten: Grad der Hemmung des Wachstums eines Tumors, der Uberlebenskraft von Tieren am 10. Tag nach der Inokulation vom Tumorzellen sowie der Lebensdauer von Tieren.

humorale Immunität = experiment: Humoral immunity in tumour-bearing rats immunised with sheep erythrocytes; assay type: in vivo, Ratten der Wistar-Linie; settings: treated tumour bearers, 4 days after immunisation
Description: Der Einfluss auf die homorale Immunität (Antiteloge- nese)- bewertete man nach der Menge von antikörperbildenden Zellen in der Milz und nach dem Titer von Agglutininen und Hämolysinen im Blütserum.
Der Einfluss der beansprucheen Stoffe auf die humorale Immunität wurde auch im Vergleich zum CDDP und zur DNS untersucht. Dafür wurden Ratten,Tumorträger der Shvetz-Erythromyelose der Wistar-Linie eingesetzt, denen man ein Tumor subkutan in die Hüfte überimpfte. Am 4. Tag nach der Uberimpfung des Tumors begann man ihre Behandlung nach dem gleichen Schema wie auch bei der Untersuchung der zellulären Immunität. Am 8. Tag nach der Uberimpfung des Tumors führte man die Immunisierung der Tiere durch, indem man ihnen intraperitoneal Hammelerythrozyte in einer Dosis von 2.10^6 Zellen einführt. In 4. Tagen nach der Immunisierung tötete man die Tiere mittels Dekapitation unter Anwendung von Athernarkose und man ermittelte den Gehalt an antikörperbildenden Zellen in der Milz nach der Erne-Methode und die Agglutinine- und Hämolysine-Titer im periphärischen Blut mit bekanntnn Methoden.
Der Gehalt an antikörperbildenden Zellen ermittelte man, berechnet auf I0^6 Splenozyte und auf die Gesamtmasse der Milz. Dee Versuchergebnisse sind in der Tabelle 4 angeführt.

[4] = CDDP in combination with Vinblastin, Bleomycin, Aktinomycin und Prednisolon; cited from earlier work
[5] = system: antikörperbildenden Zellen in der Milz; experiment: Antibody-forming cells in the spleen of mice immunised with sheep erythrocytes; assay type: in vivo, Mäusen der CBA-Linien und C57Bl6-Linie; settings: CBA and C57Bl6 mice, day 4; CDDP 8,1, DNS 6,0, compounds 13,6 mg/kg i.p.; numeric Table 6 is an image
Experimental: Es wurden Untersuchungen des Einflusses der bean - spruchten Stoffe im Vergleich zu den CDDP- und DNS-Präparaten auf die Bildung von antikörperbildenden Zellen in der Milz von zwei gegensätzlich auf die Hammelerythrozyte reagierenden Mäuse-Linien durchgeführt.
In I Stunde wurden die Tiere immunisiert, indem man ihnen intraperitoneal […] Zellen der Hammelerythrozyte einführte . Am 4. Tag ermittelte man die Anzahl der antikörperbildenden Zellen in der Milz der Tiere der Versuchs-und der Kontrollgruppe (ohne Einführung des Präparats). Der Gehalt an antikörperbildenden Zellen berechnete man auf […] Splenozyte und auf die ganze Milz. Die Ergebnisse der Untersuchungen sind in der Tagelle 6 dargestellt.

zelluläre Immunität = experiment: Cellular immunity: rejection time of a skin allograft in tumour-bearing rats; assay type: in vivo, Männchenratten der Wistar-Linie; settings: treated tumour bearers; i.p. 3x at 24 h; I 17,1, II 17,1, III 27,3, DNS 12,0, CDDP 8,1 mg/kg
Description: Der Einfluss auf die zelluläre Immunität bewertete man nach der Zeit der Abstossung eines Allotransplantats der Haut eines Tumorträgers.
Der Einfluss der beanspruchten Stoffe auf die zelluläre Immunität wurde an Männchenratten der Wistar-Linie mit einem Gewicht von 150 bis 200 g untersucht. Den Tieren wurde ein Hautlappen mit Abmessungen 2 x 3 cm^2 von den Ratten der August-Linie in die Rückengegend transplantiert. Dann wurden denselben Tieren subkutan 2.10^8 Zellen der Shvetz-Erythromyelose in die Hüfte inokuliert. Am 4. bis 6. […] Zum Vergleich verwendete man die DNS- und CDDP-Präparate, die amn in einer Salz-lösung nach dem gleichen'Schema in Dosen von 12,0 und 8,1 mg/kg einführte. Als Kontrolle dienten intakte Tiere. Die Zeit der Abstossung des Hautlappens fixierte man nach der Änderung seiner Temperatur, Farbe und Elastizität.

| Compound | LDI00 ([1]; in Lösung) | LDI00 ([1]; in Suspension) | Löslichkeit in Wasser (Solubility) | pH-Wert [2] | lg2 Antikörper-Titer ([3]; Linie der Mäuse C57Bl6, day 14) | Grad der Hemmung des Wachstums eines Tumors (Shvetz-Erythromyelose) [%] | Gehalt an antikörperbildenden Zellen je 10^6 Splenozyte (humorale Immunität) | Effektivität der Behandlung einer Eierstockgeschwulst [4] [%] | lg2 Antikörper-Titer ([3]; Linie der Mäuse C57Bl6, day 7) | Gehalt an antikörperbildenden Zellen in der Milz [5] | Uberlebenskraft von Tieren (Shvetz-Erythromyelose; day 10 after inoculation of tumour cells, same doses as E1) [%] | Die Zeit der Abstossung (in Tagen) eines Hauptlappens (zelluläre Immunität) | LD50 ([1]; in Suspension) | lg2 Antikörper-Titer ([3]; Linie der Mäuse C57Bl6, day 30) | lg2 Antikörper-Titer ([3]; Linie der Mäuse CBA, day 14) | lg2 Antikörper-Titer ([3]; Linie der Mäuse CBA, day 30) | increase of Uberlebenskraft von Tieren compared with CDDP (Shvetz-Erythromyelose; versus CDDP) [%] | LD50 ([1]; in Lösung) | lg2 Antikörper-Titer ([3]; Linie der Mäuse CBA, day 7, single i.p. dose (compounds 13,6, CDDP 8,1, DNS 6,0 mg/kg)) |
| --- | --- | --- | --- | --- | --- | --- | --- | --- | --- | --- | --- | --- | --- | --- | --- | --- | --- | --- | --- |
| Poly{hexakis-[Chloroammindiaquaplatin (II)]} - µ - desoxyribonukleat [Verbindung I] | 84,0 mg/kg | 84,0 mg/kg | 0,002% | 5,42 | 6,82±0,38 | 84 | 68,4±9,38 | – | – | – | – | – | – | – | – | – | – | – | – |
| N.N.[Cl][Pt][Cl] [CDDP, cis-Dichlorodiaminplatin(II)] | – | – | – | – | – | 78 | 20,37±2,03 | 100 | 3,80±0,24 | senken | 80 | – | – | – | – | – | – | – | – |
| Poly{hexakis [chlor- amminaquaplatin(II)]} - µ - desoxyribonukleat [Verbindung III] | – | – | – | 5,44 | 6,68±0,29 | 95 | – | – | – | – | – | 6,5±0,5 Tagen | 82,5 mg/kg | 6,32±0,24 | 8,40±0,42 | 8,50±0,30 | 20 | – | – |
| Poly {bis[hydroxochloramminaquaplatin(II)] - tetrakis[chloroammindiaquaplatin(II)] - µ - desoxyribonukleat [Verbindung II] | – | – | 0,0075% | > 5,38 | – | 94 | – | – | 6,60±0,32 | – | – | 6,5±0,5 Tagen | 66,0 mg/kg | – | 7,60±0,32 | 6,40±0,42 | – | 66,0 mg/kg | 7,20±0,30 |
